Experimental data as given in US10729659B2, “Nanogel-mediated drug delivery” (The Cleveland Clinic Foundation, priority 2012, dated 2020).
Converted amounts (≈) assume the structure as drawn. Like-named read-outs stand apart in the source and are kept apart here.

What was measured:
[1] = rat model; cited from earlier work
MCF-7/Adr = assay: Sequential/simultaneous treatment, cell viability by MTS assay; format: cell-based, human; details: for IC50: Homo sapiens, NCI/ADR-RES
Description: (§1) The efficacy of sequential treatment was tested in the following human breast cancer cell lines: MCF-7/Adr (drug resistant), MCF-7, MDAMB 231 and BT-459. Cells were seeded at 3000 cells per well/0.1 mL in 96-well plates (Microtest Becton Dickinson Labware, Franklin Lakes, N.J.). 24 h post seeding, cells were pretreated with DAC solution/nanogel for 24 h or 48 h and washed with 1×-DPBS. 0.1 mL of media containing dox solution or nanogel was added and incubated in CO2 incubator for 48 h. Cell viability was determined at the end of incubation period using a standard MTS assay (CellTiter 96 Aqueous, Promega, Madison, Wis.). To each well was added 20 μL of reagent, the plates were incubated for 2 h at 37° C. in cell culture incubator, and color intensity was measured at 490 nm using a micro plate reader (Bio-Tek Instrument, Winooski, Vt.). The effect of drug on cell proliferation was calculated as percentage growth of cells with respect to their respective controls. For simultaneous treatment DAC solution or nanogel, and dox solution or nanogel were added together to cells, and the above mentioned protocol was followed.
(§2) The interaction between DAC and dox was analyzed using the Calcusyn software program (Biosoft, Ferguson, Mo.) to determine whether the simultaneous/sequential treatment was additive or synergistic.
Data from cell viability assay (MTS) was expressed as the fraction of cells killed by individual drugs or by their combination in drug-treated compared with untreated cells. This program is based upon Chou-Talalay method. It calculates combination index (CI) of drugs. From the CI values, synergistic action of drugs can be analysed. The CI equal to 1, indicates the additive effect and CI<1 and CI>1, indicates synergistic and antagonistic activity respectively.

BT 459 = assay: Sequential treatment, cell viability by MTS assay; format: cell-based; details: Homo sapiens, dox alone, read-out: IC50 (Dox ng/mL)
Description: as §1, with “For simultaneous treatment DAC solution or nanogel, and dox solution or nanogel were added together to cells, and the above mentioned protocol was followed.” left out
as §2
Data from cell viability assay (MTS) was expressed as the fraction of cells killed by individual drugs or by their combination in drug-treated compared with untreated cells. […]

dox sensitive cell lines = assay: Dox cell viability by MTS assay, sensitive cell lines; format: cell-based; details: Homo sapiens; range over sensitive cell lines
Description: Cells were seeded at 3000 cells per well/0.1 mL in 96-well plates (Microtest Becton Dickinson Labware, Franklin Lakes, N.J.). […] Cell viability was determined at the end of incubation period using a standard MTS assay (CellTiter 96 Aqueous, Promega, Madison, Wis.). To each well was added 20 μL of reagent, the plates were incubated for 2 h at 37° C. in cell culture incubator, and color intensity was measured at 490 nm using a micro plate reader (Bio-Tek Instrument, Winooski, Vt.). The effect of drug on cell proliferation was calculated as percentage growth of cells with respect to their respective controls. For simultaneous treatment DAC solution or nanogel, and dox solution or nanogel were added together to cells, and the above mentioned protocol was followed.

MCF-7 cells = assay: Cell cycle analysis by flow cytometry; format: cell-based, human; details: DAC 50 ng/mL, dox 1 ng/mL, 48 h and 72 h, vs DAC alone or untreated
Description: (§3) Subconfluent cells were left untreated or treated with DAC (50 and 100 ng/mL) and dox (1 ng/mL) alone or in combination (sequential treatment) for 4-96 h. Cells were then trypsinized and then centrifuged at 1,300 rpm for 3 min at 4° C. Cell pellet was washed twice with ice cold 1X DPBS (pH 7.4) and resuspended in propidium iodide-(PI) solution (12.5 mg PI, 250 mg Sodium-Citrate and 250 μL Triton X-100 in 250 mL of water). Cells were then incubated in ice bucket, kept in cold room for 2 h, and DNA content was determined by flow cytometry using a FACScan flow cytometer (Becton Dickinson, San Jose, Calif.).

MCF-7/Adr cells [2] = assay: Cell cycle analysis by flow cytometry; format: cell-based, human; details: DAC 50 ng/mL, dox 1 ng/mL, 48 h and 72 h, vs DAC alone or untreated
Description: as §3

MCF-7/Adr cells [3] = assay: Cellular uptake of dox; format: cell-based, human; details: dox alone treated MCF-7/Adr cells
Description: Drug resistant breast cancer cells were seeded in 24 well plates (1.2×10^6 cells/well). Post 48 h seeding, cells were pre-treated with DAC (50 ng/mL; 24 h); and then incubated with fixed concentration of dox (1 μg/mL) for indicated time points. Post drug incubation cell lysates in RIPA buffer was collected and lyophilized. Dox was extracted from lyophilized cell lysates using methanol as the solvent and analyzed by HPLC.

Row | IC50 (MCF-7/Adr; dox alone, mean ± s.e.m., three experiments, read-out: IC50 (Dox ng/mL)) [ng/mL] | IC50 (MCF-7/Adr; pretreated with DAC 24 h, then dox 48 h, read-out: IC50 (Sequential - Deci + Dox ng/mL)) [ng/mL] | IC50 (Dox ng/mL) (MCF-7/Adr; dox alone, mean ± s.e.m., three experiments) [ng/mL] | SMILES | Carcinogenicity [1] | IC50 (BT 459) [ng/mL] | IC50 (dox sensitive cell lines) [µg/mL] | G2/M arrest (MCF-7 cells) | G2/M arrest (MCF-7/Adr cells [2]) | Incubation time after which drug concentration reached plateau (MCF-7/Adr cells [3]) [h]
1 | – | – | – | Nc1ncn([C@@H]2O[C@H](CO)[C@@H](O)[C@H]2O)c(=O)n1 [5-azacytidine] | carcinogenic | – | – | – | – | –
2 | 7380 | ≤ 1 | 7385.2 ± 698 | COc1cccc2c1C(=O)c1c(O)c3c(c(O)c1C2=O)C[C@@](O)(C(=O)CO)C[C@@H]3O[C@H]1C[C@H](N)[C@H](O)[C@H](C)O1 [Dox, doxorubicin] | – | 102 ± 4.7 | 0.019 to 0.102 (≈ 0.035 to 0.188 µM) | no difference | no difference | 1
